Results on five compounds are retold here after ChEMBL document CHEMBL4414624, “Terpenoids from the Stems of Fissistigma polyanthoides and Their Anti-Inflammatory Activity” (J Nat Prod, 2019).

Assay [1] in a line: (§1) Inhibition of LPS-induced NF-kappaB/AP-1 signalling cascade in human THP1-Blue-CD14 cells incubated for 24 hrs by quanti-blue SEAP assay. It is filed as cell-based.
For another assay, the species on record is Homo sapiens. Described as §1. Type of assay: cell-based.
Assay [2] can be described thus: Cytotoxicity against LPS-stimulated human THP1-Blue-CD14 cells assessed as reduction in cell viability after 24 hrs by CellTiter-Blue based fluorescence analysis.
A short description of assay [3]: Cytotoxicity against human THP1-Blue-CD14 cells assessed as reduction in cell viability after 24 hrs by CellTiter-Blue based fluorescence analysis.

As for `C=C1CC[C@@H](C(C)C)/C=C/[C@@](C)(O[C@@H]2O[C@H](CO)[C@@H](O)[C@H](O)[C@H]2OC(=O)/C=C/c2ccccc2)CCC1=O`, the IC50 in assay [1] came out at 49 µM; in assay [2], 154 µM. The inhibition result in the assay listed under Homo sapiens is “Dose-dependent effect”.

In the case of `C[C@@H]1CC[C@H](C(C)(C)O[C@@H]2O[C@H](CO)[C@@H](O)[C@H](O)[C@H]2OC(=O)/C=C/c2ccccc2)CC2=C1CC[C@H]2C`, the IC50 was found to be 28.4 µM in assay [1], 47.9 µM in assay [3] and 35.2 µM in assay [2]. For the same compound, the inhibition result in the assay listed under Homo sapiens is “Dose-dependent effect”.

Consider `CC(C)[C@@H]1CC[C@@H](C)[C@@]23CC[C@](C)(O[C@@H]4O[C@H](CO)[C@@H](O)[C@H](O)[C@H]4OC(=O)/C=C/c4ccccc4)[C@@H]2[C@@H]13`, for which the IC50 was found to be 13.7 µM in assay [1], 29.2 µM in assay [3] and 21.6 µM in assay [2]. The inhibition result in the assay listed under Homo sapiens is “Dose-dependent effect”.

On to `CC(C)[C@H]1CC/C2=C/C(=O)CC[C@](C)(O[C@@H]3O[C@H](CO)[C@@H](O)[C@H](O)[C@H]3OC(=O)/C=C/c3ccccc3)C[C@@H]21`, for which the results for the IC50 in assay [1], in assay [3] and in assay [2] were 30.7 µM, 133 µM and 46.4 µM, respectively. In the assay filed under Homo sapiens, the inhibition entry is “Dose-dependent effect”.

On to `CC(C)C1=CC[C@]2(C)[C@@H](O)CC[C@@](C)(O[C@@H]3O[C@H](CO)[C@@H](O)[C@H](O)[C@H]3OC(=O)/C=C/c3ccccc3)[C@H]2C1`, for which the results for the IC50 in assay [1], in assay [3] and in assay [2] were 20.8 µM, 39.1 µM and 29.5 µM, respectively. In addition, the inhibition entry in the assay listed under Homo sapiens is “Dose-dependent effect”.
